Earlier results as cited in US20120207744A1, “REPROGRAMMING COMPOSITIONS AND METHODS OF USING THE SAME” (priority 2009, published 2012).
Where a name gives a salt, the structure may show the parent alone. Blank lines part the entries; values can stand above or below the molecule they belong to.

Tests used:
ROCK1/ROCK2 = conditions: inhibits by competing with ATP; Ishizaki et al. 2000
[1] = test system: primary human fibroblasts; conditions: Oct-3/4 and Sox-2, without c-Myc or Klf-4
Oct-3/4-GFP = Oct-3/4-GFP as a reporter
[2] = test system: mouse embryonic fibroblasts; conditions: small-molecule combination BIX-01294 and BayK8644
human ESCs = conditions: both appear equally effective in facilitating clonal growth
ES-cell = conditions: repression of MEK/ERK, in culture
ESCs = conditions: cyclic activation of Wnt/β-catenin signaling in ESCs
Klf-4 promoter = conditions: transient transfection, 2622-bp mouse Klf-4 promoter

IC50 (ROCK1/ROCK2): 800 nM
Molecule: C[C@@H](N)[C@H]1CC[C@H](C(=O)Nc2ccncc2)CC1 [Y-27632, (+)-(R)-trans-4-(1-aminoethyl)-N-(4-pyridyl)cyclohexanecarboxamide dihydrochloride]

Molecule: CCCC(CCC)C(=O)O [valproic acid]
reprogramming with only two factors [1]: enables reprogramming of primary human fibroblasts | improvement of reprogramming efficiency (Oct-3/4-GFP): more than 100 fold

Molecule: COc1cc2nc(N3CCCN(C)CC3)nc(NC3CCN(Cc4ccccc4)CC3)c2cc1OC [BIX-01294]
reprogramming of Oct-3/4/Klf-4 transduced cells [2]: enables reprogramming

Molecule: N#CC(=C(/N)Sc1ccccc1N)/C(C#N)=C(\N)Sc1ccccc1N [U0126]
effect on enterostatin-induced inhibition of KLF4 gene expression (GT1-7 cells; GT1-7 cells, ERK inhibitor): blocked

Molecule: enterostatin
effect on KLF4 gene expression (GT1-7 cells; GT1-7 cells treated with the peptide): inhibited KLF4 gene expression

Molecule: COC(=O)C1=C(C)NC(C)=C([N+](=O)[O-])C1c1ccccc1C(F)(F)F (stereo not drawn) [BayK8644]
reprogramming of Oct-3/4/Klf-4 transduced cells [2]: enables reprogramming

Molecule: Cc1cncc2cccc(S(=O)(=O)N3CCCNC[C@@H]3C)c12.Cl.Cl [H-1152, (S)-(+)-2-methyl-1-[(4-methyl-5-isoquinolinyl)sulfonyl]homopiperazine dihydrochloride]
working concentration for facilitating clonal growth, relative to HA-100 (human ESCs): ten times lower working concentrations than HA-100

Molecule: COc1cccc(-c2cc(=O)c3ccccc3o2)c1N [PD098059]
effect on differentiation and ES-cell self-renewal (ES-cell): inhibits differentiation and maintains ES-cell self-renewal in culture

Molecule: O=C1Nc2cc(Br)ccc2/C1=C1/Nc2ccccc2/C1=N\O [6-bromoindirubin-3′-oxime]
ability of ESCs to reprogram somatic cells after fusion (ESCs): strikingly enhances

B1: IFN-gamma: IFN-gamma, cytokine inducing Klf-4 expression via phosphorylated STAT1 (protein, UniProt P01579 24-161, looked up)
Interferon gamma: QDPYVKEAENLKKYFNAGHSDVADNGTLFLGILKNWKEESDRKIMQSQIVSFYFKLFKNFKDDQSIQKSVETIKEDMNVKFFNSNKKKRDDFEKLTNYSVTDLNVQRKAIHELIQVMAELSPAAKTGKRKRSQMLFRG
increase of Klf-4 promoter activity (Klf-4 promoter): 3.5 fold

B2: Wnt3a: Wnt protein activating Wnt/β-catenin signaling (protein, UniProt P56704 19-352, looked up)
Protein Wnt-3a: SYPIWWSLAVGPQYSSLGSQPILCASIPGLVPKQLRFCRNYVEIMPSVAEGIKIGIQECQHQFRGRRWNCTTVHDSLAIFGPVLDKATRESAFVHAIASAGVAFAVTRSCAEGTAAICGCSSRHQGSPGKGWKWGGCSEDIEFGGMVSREFADARENRPDARSAMNRHNNEAGRQAIASHMHLKCKCHGLSGSCEVKTCWWSQPDFRAIGDFLKDKYDSASEMVVEKHRESRGWVETLRPRYTYFKVPTERDLVYYEASPNFCEPNPETGSFGTRDRTCNVSSHGIDGCDLLCCGRGHNARAERRREKCRCVFHWCCYVSCQECTRVYDVHTCK
ability of ESCs to reprogram somatic cells after fusion (ESCs): strikingly enhances
